Assay results taken from paper PMC3409115, “Diverse Inhibitor Chemotypes Targeting Trypanosoma cruzi CYP51” (PLoS Neglected Tropical Diseases, 2012).
Where two headings read alike, the source gives them in different places.

Tests used:
T. cruzi CYP51 = target: T1, T. cruzi CYP51 (Trypanosoma cruzi, UniProt Q7Z1V1); assay: Low throughput UV-vis binding assay; conditions: for Binding to CYP51 by UV-vis titration (in words): 0.5 µM CYP51
T1 construct: had the first 21 residues upstream of K22 replaced with the fragment MAKKKKK; His6 (C); made in house
Experimental: Hit validation in the low throughput UV-vis binding assay was performed according to a previously published but somewhat modified protocol. UV-vis absorption spectra were recorded on a Cary scanning spectrophotometer (Varian) in the 1-cm path length quartz cuvette at 23°C in 100 mM potassium phosphate buffer, pH 7.5, containing 10% glycerol, with CYP51 concentration of 0.5 µM. Compound solutions used for titration were prepared in DMSO at 100 µM and added in 2-µl aliquots to each 3 ml sample using a P2 pipetman (Gilson). Binding affinity of hits was estimated using the quadratic tight-binding equation [27]: […]
where Aobs is the absorption shift determined at any ligand concentration; Amax is the maximal absorption shift obtained at saturation; KD is dissociation constant for the inhibitor-enzyme complex; S is the ligand concentration; Et is the total enzyme concentration.

[1] = test system: host cell (skeletal myoblasts, bovine embryo skeletal muscle or C2C12); assay: Host cell toxicity in the cross-validation assay; assay type: cell-based; conditions: host cells in cross-validation assay, up to 10 µM

T1 sequence (Q7Z1V1 15-481, looked up, natural form): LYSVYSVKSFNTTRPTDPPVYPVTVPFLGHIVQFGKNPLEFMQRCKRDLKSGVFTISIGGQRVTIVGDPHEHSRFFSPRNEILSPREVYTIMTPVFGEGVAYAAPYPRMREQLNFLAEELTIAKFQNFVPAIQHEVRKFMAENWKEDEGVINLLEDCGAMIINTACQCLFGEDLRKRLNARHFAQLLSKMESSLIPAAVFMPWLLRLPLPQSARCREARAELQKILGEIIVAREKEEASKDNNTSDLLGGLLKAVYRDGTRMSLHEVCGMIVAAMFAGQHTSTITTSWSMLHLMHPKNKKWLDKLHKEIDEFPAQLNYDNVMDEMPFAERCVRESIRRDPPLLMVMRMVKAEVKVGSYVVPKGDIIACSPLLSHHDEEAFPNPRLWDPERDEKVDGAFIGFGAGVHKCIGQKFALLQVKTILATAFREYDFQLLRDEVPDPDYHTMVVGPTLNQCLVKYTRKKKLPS

Compound: Brc1ccccc1OCCCCCCn1ccnc1 [Compound 1]
- Binding to CYP51 by UV-vis titration (in words) (T. cruzi CYP51): at least low nanomolar binding affinity
- Kd (T. cruzi CYP51; UV-vis titration, 0.5 µM CYP51, quadratic tight-binding equation, lower limit of method ~5 nM, read-out: KD): ≤ 5 nM
- Toxicity score (highest percentage of host cell growth inhibition) [1]: 2 (2-21-30%)

Compound: O=C(c1ccc(Cl)cc1)C(Oc1ccc(Cl)cc1)n1cncn1 (stereo not drawn) [Compound 13, 2-(4-chlorophenoxy)-1-(4-chlorophenyl)-2-(1H-1,2,4-triazol-1-yl)ethanone]
- Kd (T. cruzi CYP51): ≤ 5 nM
- Binding to CYP51 by UV-vis titration (in words) (T. cruzi CYP51): binds and saturates CYP51 at equimolar 0.5 µM concentrations
- Toxicity score (highest percentage of host cell growth inhibition) [1]: 3 (3- 31-40%)
